Holding throughout (format): biochemical
Test [1] has as its system HIV-1 protease resistant mutant G48V. As to conditions: Ki,mut G48V / Ki wild-type.
The target of test [2] is T1, HIV-1 protease resistant mutant G48V (Human immunodeficiency virus type 1 group M subtype B, UniProt P04585, G536V).
T1 construct: The active HIVPr is a homodimer of 99-residue monomers; made in house
As to conditions: G48V mutant; with standard error.

The target of test [3] is T2, HIV-1 protease resistant mutant V82A (Human immunodeficiency virus type 1 group M subtype B, UniProt P04585, V570A).
T2 construct: The active HIVPr is a homodimer of 99-residue monomers; made in house
As to conditions: V82A mutant; with standard error.

Test [4] relates to HIV-1 protease resistant mutant V82A. As to conditions: Ki,mut V82A / Ki wild-type.
A further test deals with T3, wild type HIV-1 protease (Human immunodeficiency virus type 1 group M subtype B, UniProt P04585).
T3 construct: The active HIVPr is a homodimer of 99-residue monomers; made in house; host or cells: E. coli
Briefly: Ki determination, wild-type HIV-1 protease. As to conditions: W.T. HIV-1 protease; with standard error. From the text:
(§1) The wild-type HIV-1 Pr was produced as recombinant enzyme in E. coli as described by Ido et al. ( 1991) J. Biol. Chem. 266:24359-24366.

Test [5] deals with T4, HIV-1 protease resistant mutant L90M (Human immunodeficiency virus type 1 group M subtype B, UniProt P04585, L578M).
T4 construct: The active HIVPr is a homodimer of 99-residue monomers; made in house
As to conditions: L90M mutant; with standard error.

Test [6] relates to HIV-1 protease resistant mutant L90M. As to conditions: Ki,mut L90M / Ki wild-type.
The target of test [7] is T5, HIV-1 protease resistant mutant L10I (Human immunodeficiency virus type 1 group M subtype B, UniProt P04585, L498I).
T5 construct: The active HIVPr is a homodimer of 99-residue monomers; made in house
As to conditions: L10I mutant; with standard error.

Test [8] has as its system HIV-1 protease resistant mutant L10I. As to conditions: Ki,mut L10I / Ki wild-type.
Test [9] addresses T6, HIV-1 protease resistant mutant K20R (Human immunodeficiency virus type 1 group M subtype B, UniProt P04585, K508R).
T6 construct: The active HIVPr is a homodimer of 99-residue monomers; made in house
As to conditions: K20R mutant; with standard error.

Test [10] concerns HIV-1 protease resistant mutant K20R. As to conditions: Ki,mut K20R / Ki wild-type.
Test [11] deals with HIV-1 protease resistant mutant I84V. As to conditions: Ki,mut I84V / Ki wild-type.
Test [12] deals with T7, HIV-1 protease resistant mutant I84V (Human immunodeficiency virus type 1 group M subtype B, UniProt P04585, I572V).
T7 construct: The active HIVPr is a homodimer of 99-residue monomers; made in house
As to conditions: I84V mutant; with standard error.

The subject of test [13] is HIV-1 protease resistant mutant I15V. As to conditions: Ki,mut I15V / Ki wild-type.
Test [14] deals with T8, HIV-1 protease resistant mutant I15V (Human immunodeficiency virus type 1 group M subtype B, UniProt P04585, I503V).
T8 construct: The active HIVPr is a homodimer of 99-residue monomers; made in house
As to conditions: I15V mutant; with standard error.

Test [15] has as its target T9, HIV-1 protease resistant mutant I64V (Human immunodeficiency virus type 1 group M subtype B, UniProt P04585, I552V).
T9 construct: The active HIVPr is a homodimer of 99-residue monomers; made in house
As to conditions: I64V mutant; with standard error.

For test [16], the system named is HIV-1 protease resistant mutant I64V. As to conditions: Ki,mut I64V / Ki wild-type.
Test [17] addresses T10, HIV-1 protease resistant mutant I93L (Human immunodeficiency virus type 1 group M subtype B, UniProt P04585, I581L).
T10 construct: The active HIVPr is a homodimer of 99-residue monomers; made in house
Briefly: Ki determination, HIV-1 protease mutant I93L.
Excerpt: as §1

In test [18] the test system is HIV-1 protease resistant mutant M46I. As to conditions: Ki,mut M46I / Ki wild-type.
Test [19] addresses T11, HIV-1 protease resistant mutant M46I (Human immunodeficiency virus type 1 group M subtype B, UniProt P04585, M534I).
T11 construct: The active HIVPr is a homodimer of 99-residue monomers; made in house
As to conditions: M46I mutant; with standard error.

“And” between values parts separate entries of the source, which are not always exact repeats. Equal entries are not always repeated.

Consider `CC(C)CN(CC(O)C(Cc1ccccc1)NC(=O)C(Cc1ccccc1)CC(O)C(Cc1ccccc1)NC(=O)OC1CCCO1)S(=O)(=O)c1cccc(O)c1` [UIC-98-056, (1′S,2R,2′R,3S,5′S)-3-[N-[2′-Benzyl-5′-[N-(2-tetrahydrofuranyloxycarbonyl]amino-4′-hydroxy-6′-phenyl-1′-oxo]hexyl]amino-2-hydroxy-1-[N-isobutylamino-N′[3-hydroxybenzene)sulfonamido]]-4-[phenylbutane], for which the “fold of Ki increase from that of the wild-type” value is 1.4 fold in [1]; 1.0 fold in [4]; 0.3 fold in test [6]; 0.2 fold in test [8]; 0.5 fold in [10]; 9 fold and 8.9 fold in test [11]. For the same molecule, the “fold of Ki increase from that of the wild-type” value was 0.2 fold in test [13], 1.0 fold in test [16], 0.5 fold in [17] (Ki,mut I93L / Ki wild-type) and 0.5 fold in test [18]. The inhibition constant Ki came to 8.7 ± 1.4 nM in test [2]; 6.23 ± 1.2 nM in test [3]; 6.2 ± 0.8 nM at wild type HIV-1 protease; 2.1 ± 0.5 nM in test [5]; 1.03 ± 0.25 nM in [7]; 2.9 ± 0.74 nM in test [9]. The Ki in test [12] was determined as 55.3 ± 0.46 nM; in [14], 1.22 ± 0.14 nM; in test [15], 6.24 ± 1.52 nM; in test [17] (I93L mutant, with standard error), 3.05 ± 0.64 nM; in test [19], 3.16 ± 0.81 nM.

What is called Ki is the dissociation constant of the complex between target and ligand, obtained from inhibition or displacement.

Source of the values: patent US6969731B1, “Protease inhibitors that overcome drug resistance” (The University of Illinois, Board of Trustees, priority 1999, dated 2005).
